Measured values as given in EP0497921B1, “METHOD FOR INHIBITING ENZYMATIC SYNTHESIS OF NUCLEIC ACIDS USING ISOPSORALENS” (ISAACS, Stephen T., priority 1989, dated 1991).

Assays:
115-mer = experiment: Crosslinkable Oligonucleotide Probe Analysis (COP) of sterilized PCR product; type: biochemical, HIV
Source text: Because of this, these isopsoralen-modified single strands should remain detectable by hybridization procedures. […] Preparation of Samples: The HIV 115-mer system with primers SK-38/SK-39 was used for the experiment (see Figure 36, "HIV Oligonucleotide System"). Two types of starting template were used: previously amplified 115-mer or genomic DNA, isolated from an individual known to be infected with HIV (MACS sample). For previously amplified 115-mer between 10^5 and 10^6 copies were used for starting template. For the genomic (MACS) sample, approximately 1 µg (3 x 10^5 copies) of genomic DNA were used. Two PCR samples were prepared for each type of template then amplification was carried out for either 20 or 30 cycles. One of the two PCR samples contained AMDMIP at 200 µg/ml while the other was AMDMIP free. Following amplification, the AMDMIP containing samples were divided and half were irradiated. Analysis (OH or COP) was then done on the three samples from each set (AMDMIP free, AMDMIP unirradiated, and AMDMIP irradiated) for each cycle number. The AMDMIP free samples served as control, the AMDMIP unirradiated sampes adressed the effect of non-covalently bound AMDMIP on detection, and AMDMIP irradiated samples addressed the effect of covalently bound AMDMIP on detection.
COP and OH assays were performed a follows. 10 µl of the PCR reaction mixture was added to 3.3 µl of "probe mix" [5'-labelled SK-19 (normal or monoadducted) at 10^-8 M containing EDTA and an appropriate salt mixture], overlaid with 30-40 µl of light mineral oil, then heated to 95-100°C for 5 minutes. For COP, the hybridization mixture as placed in the PTI device at 56°C and irradiated for 15 minutes. Following this, loading dyes (containing urea or formamide) were added, the sample heated to 95-100°C for 5 minutes, quick chilled on wet ice, then loaded on a denaturing PAGE gel followed by electrophoresis under denaturing conditions. For OH reactions, the hybridization mixture was incubated at 56°C for 30 minutes, loading dyes added, and aliquots loaded directly into a native PAGE gel followed by electrophoresis under native conditions. 1. Samples 1-6 contain previously amplified 115-mer that was re-amplified either 20 (samples 1,3,5) or 30 (Samples 2,4,6) cycles then detected by COP. Samples 1 & 2 are controls (without AMDMIP); samples 3 and 4 are (with AMDMIP and with light) sterilized samples; samples 5 & 6 are (with AMDMIP but without light) controls. The bands corresponding to amplified 115-mer crosslinked to labelled 41-mer probe (SK-19 MA) are the upper bands in Figure 46. Samples 11-16 are the same series except the MACS sample was used as template.

[1] = test system: Molt-4 human genomic DNA target; experiment: Sterilization of genomic target before PCR (174 bp beta globin product); type: biochemical
Method: Four samples containing 1 µg of Molt-4 human genomic DNA target were prepared for PCR with primers KM 29 (5'-[…]) and HRI-12 (5'-[…]). These primers give a 174 bp product within the human beta globin gene. All four samples contained AMDMIP at 100 µg/ml, and were irradiated for 0, 5, 10 or 15 minutes prior to PCR amplification. […] Amplification were carried out in 1 x Taq buffer (50 mM KCl, 10 mM Tris pH 8.5, 2.5 mM MgCl2, 200 µg/ml gelatin), 175 µM each dNTP, 20 µM primer with 2.5 units of Taq polymerase and 100 µg/ml AMDMIP present during amplification. PCR was carried out for 30 cycles; one cycle = 30 sec at 94°C (denaturing), 30 sec at 55°C (primer annealing), and 60 sec at 72°C (extension). α-^32P-dCTP was used as an internal label. After amplification, the samples were analyzed for product by PAGE followed by autoradiaography.

human placental DNA = experiment: PCR amplification with unirradiated AMDMIP and DMSO co-solvent; type: biochemical; details: for CPM of product bands: AMDMIP 200 µg/ml unirradiated
Method: In this example, the effect of DMSO on PCR amplification in the presence of high concentrations of sterilizing compound (AMDMIP) was investigated. Samples were prepared for PCR which contained 1 µg of human placental DNA either with or without (unirradiated) AMDMIP (200 µg/ml). The samples were amplified 30 cycles under standard PCR conditions in the presence of 0%, 1%, 5% or 10% DMSO. The reaction mix contained α-^32P-dCTP. Following amplification, the samples were analyzed by PAGE (data not shown).

DNA = DNA base pair:isopsoralen ratio of 24.3 to 1; 13.1 µg/ml; cited from earlier work
[2] = test system: DNA polymerase I from E. coli. B; details: Piette and Hearst 1983; nick-translating a double-stranded template; cited from earlier work
[3] = Sample 4: previously amplified 115-mer, 30 cycles, with AMDMIP and with light
[4] = Sample 5: previously amplified 115-mer, 20 cycles, with AMDMIP but without light
[5] = Sample 6: previously amplified 115-mer, 30 cycles, with AMDMIP but without light
[6] = Sample 13: MACS genomic template, 20 cycles, with AMDMIP and with light
[7] = Sample 14: MACS genomic template, 30 cycles, with AMDMIP and with light
[8] = Sample 15: MACS genomic template, 20 cycles, with AMDMIP but without light
[9] = Sample 16: MACS genomic template, 30 cycles, with AMDMIP but without light

## 4'-Aminomethyl-4,5'-dimethylisopsoralen [AMDMIP]
115-mer; Sample 3: previously amplified 115-mer, 20 cycles, with AMDMIP (200 µg/ml) and with light
  CPM: 1944 CPM
115-mer; Sample 3: previously amplified 115-mer, 20 cycles, with AMDMIP and with light
  CPM (%) relative to sample without AMDMIP: 62%
115-mer; [3]
  CPM: 36452 CPM
  CPM (%) relative to sample without AMDMIP: 83%
115-mer; [4]
  CPM: 4480 CPM
  CPM (%) relative to sample without AMDMIP: 144%
115-mer; [5]
  CPM: 39596 CPM
  CPM (%) relative to sample without AMDMIP: 90%
115-mer; [6]
  CPM: 460 CPM
  CPM (%) relative to sample without AMDMIP: 52%
115-mer; [7]
  CPM: 41777 CPM
  CPM (%) relative to sample without AMDMIP: 78%
115-mer; [8]
  CPM: 464 CPM
  CPM (%) relative to sample without AMDMIP: 53%
115-mer; [9]
  CPM: 35176 CPM
  CPM (%) relative to sample without AMDMIP: 66%
[1]; 100 µg/ml, data not shown
  impact of unirradiated AMDMIP on amplification: no significant impact on amplification
[1]; AMDMIP 100 µg/ml, irradiated 0, 5, 10 or 15 minutes prior to PCR, 30 cycles
  amplification after irradiation in the presence of AMDMIP: no amplification of the sterilized genomic target
Human placental DNA; 200 µg/ml, no DMSO, 30 cycles
  amplification with unirradiated AMDMIP: virtually no detectable amplification product
Human placental DNA; 0% DMSO
  CPM of product bands: 2500 CPM
Human placental DNA; 1% DMSO
  CPM of product bands: 2800 CPM
Human placental DNA; 5% DMSO
  CPM of product bands: 86,000 CPM
Human placental DNA; 10% DMSO
  CPM of product bands: 102,000 CPM
DNA
  1 photobound AMDMIP per n DNA base pairs: 151 DNA base pairs

## Cc1cc2occc2c2oc(=O)ccc12 [MIP, 5-Methylisopsoralen]
[2]
  inhibition of E. Coli polymerase I by covalently bound monoadducts: not inhibited
